Values joined by “and” are separate entries in the source; they are usually repeats but may differ in a detail not shown here. Equal values may be shown once. Inconclusive results and toxic doses are left out. Cut-off read from the data, not from the text of the source: active = T/C of 150% or more; inactive = T/C below 125%.
System: L1210 leukemia ip in BDF1 mice, survival T/C
Assay: NCI In Vivo Anticancer Drug Screen. Data for tumor model L1210 Leukemia (intraperitoneal) in B6D2F1 (BDF1) mice
Conditions: endpoint: mean survival time, higher = longer survival
Summary of the method: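 Survival endpoint. Drug-treated group vs vehicle group, expressed as T divided by C. Tumor passaged by transplantation.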

[1] = dose: 50.0 mg/kg/injection, schedule: Q01DX009 (ip), vehicle: Klucel (hydroxypropylcellulose) (HPC)
[2] = dose: 100.0 mg/kg/injection, schedule: Q04DX003 (ip), vehicle: saline with Tween-80
[3] = dose: 200.0 mg/kg/injection, schedule: Q04DX003 (ip), vehicle: saline with Tween-80
[4] = dose: 400.0 mg/kg/injection, schedule: Q04DX003 (ip), vehicle: saline with Tween-80
[5] = dose: 100.0 mg/kg/injection, schedule: Q01DX001 (ip), vehicle: Klucel (hydroxypropylcellulose) (HPC)
[6] = dose: 200.0 mg/kg/injection, schedule: Q01DX001 (ip), vehicle: Klucel (hydroxypropylcellulose) (HPC)
[7] = dose: 400.0 mg/kg/injection, schedule: Q01DX001 (ip), vehicle: Klucel (hydroxypropylcellulose) (HPC)
[8] = dose: 50.0 mg/kg/injection, schedule: Q01DX009 (ip), vehicle: saline with Tween-80
[9] = dose: 100.0 mg/kg/injection, schedule: Q01DX009 (ip), vehicle: saline with Tween-80
[10] = dose: 200.0 mg/kg/injection, schedule: Q01DX009 (ip), vehicle: saline with Tween-80
[11] = dose: 100.0 mg/kg/injection, schedule: Q01DX001 (ip), vehicle: saline
[12] = dose: 200.0 mg/kg/injection, schedule: Q01DX001 (ip), vehicle: saline
[13] = dose: 25.0 mg/kg/injection, schedule: Q04DX003 (ip), vehicle: saline
[14] = dose: 50.0 mg/kg/injection, schedule: Q04DX003 (ip), vehicle: saline
[15] = dose: 100.0 mg/kg/injection, schedule: Q04DX003 (ip), vehicle: saline
[16] = dose: 200.0 mg/kg/injection, schedule: Q04DX003 (ip), vehicle: saline
[17] = dose: 25.0 mg/kg/injection, schedule: Q01DX009 (ip), vehicle: saline
[18] = dose: 50.0 mg/kg/injection, schedule: Q01DX009 (ip), vehicle: saline
[19] = dose: 100.0 mg/kg/injection, schedule: Q01DX009 (ip), vehicle: saline
[20] = dose: 200.0 mg/kg/injection, schedule: Q01DX009 (ip), vehicle: saline
[21] = dose: 400.0 mg/kg/injection, schedule: Q04DX003 (ip), vehicle: saline
[22] = dose: 100.0 mg/kg/injection, schedule: Q01DX001 (ip), vehicle: carboxymethylcellulose (CMC)
[23] = dose: 200.0 mg/kg/injection, schedule: Q01DX001 (ip), vehicle: carboxymethylcellulose (CMC)
[24] = dose: 400.0 mg/kg/injection, schedule: Q01DX001 (ip), vehicle: carboxymethylcellulose (CMC)
[25] = dose: 100.0 mg/kg/injection, schedule: Q04DX002 (ip), vehicle: saline with Tween-80
[26] = dose: 200.0 mg/kg/injection, schedule: Q04DX002 (ip), vehicle: saline with Tween-80
[27] = dose: 400.0 mg/kg/injection, schedule: Q04DX002 (ip), vehicle: saline with Tween-80

Measured: T/C

CCOP(=O)(/C(C#N)=C/c1ccccc1)c1ccccc1 (stereo not given)
inactive: [1] 95 % of control | dose: 75.0 mg/kg/injection, schedule: Q01DX009 (ip), vehicle: Klucel (hydroxypropylcellulose) (HPC) 96 % of control | dose: 75.0 mg/kg/injection, schedule: Q04DX003 (ip), vehicle: Klucel (hydroxypropylcellulose) (HPC) 101 % of control | dose: 150.0 mg/kg/injection, schedule: Q01DX009 (ip), vehicle: Klucel (hydroxypropylcellulose) (HPC) 93 % of control | dose: 150.0 mg/kg/injection, schedule: Q04DX003 (ip), vehicle: Klucel (hydroxypropylcellulose) (HPC) 98 % of control | dose: 300.0 mg/kg/injection, schedule: Q04DX003 (ip), vehicle: Klucel (hydroxypropylcellulose) (HPC) 91 % of control

CC(=O)OCc1ccc(Cl)cc1Cl
inactive: [2] 97 % of control | [3] 97 % of control | [4] 101 % of control

NC(=O)CNc1ccccc1C(=O)O
inactive: [5] 93 % of control | [6] 96 % of control | [7] 93 % of control

Cc1ccc(NC(=O)COc2ccc(C)cc2C)cc1
inactive: dose: 100.0 mg/kg/injection, schedule: Q04DX002 (ip), vehicle: gum acacia 95 % of control | dose: 200.0 mg/kg/injection, schedule: Q04DX002 (ip), vehicle: gum acacia 89 % of control

O=C(Nc1cccc(F)c1)Nc1nccs1
inactive: dose: 25.0 mg/kg/injection, schedule: Q01DX009 (ip), vehicle: Klucel (hydroxypropylcellulose) (HPC) 89 % of control | [1] 99 % of control | dose: 100.0 mg/kg/injection, schedule: Q01DX009 (ip), vehicle: Klucel (hydroxypropylcellulose) (HPC) 95 % of control and 97 % of control

Oc1cc(O)c2c(c1)OC(O)(c1ccc(O)c(O)c1)C(O)O2 (stereo not given) (tested in a mixture with another compound)
inactive: [8] 104 % of control | [9] 95 % of control | [10] 102 % of control

CC(=O)c1ccc(N2CCCCC2)cc1
inactive: dose: 50.0 mg/kg/injection, schedule: Q01DX001 (ip), vehicle: saline 96 % of control | [11] 94 % of control | [12] 100 % of control | dose: 400.0 mg/kg/injection, schedule: Q01DX001 (ip), vehicle: saline 94 % of control

COC(=O)/C(=C/c1ccccc1)CBr
inactive: [8] 94 % of control | [9] 102 % of control

Clc1nnc2c3ccccc3ccn12
inactive: [11] 96 % of control | [12] 98 % of control

O=c1[nH]cnc2nccnc12
inactive: [13] 100 % of control | [14] 101 % of control | [15] 88 % of control | [16] 90 % of control

OCCCC1CCCCN1 (stereo not given)
inactive: [17] 100 % of control | [18] 96 % of control | [19] 88 % of control | dose: 100.0 mg/kg/injection, schedule: Q04DX003 (ip), vehicle: acetone 103 % of control

COc1ccc(CC(N)C(=O)OC(C)C)cc1N(CCCl)CCCl (stereo not given)
inactive: dose: 1.5 mg/kg/injection, schedule: Q01DX001 (ip), vehicle: saline 108 % of control | dose: 3.0 mg/kg/injection, schedule: Q01DX001 (ip), vehicle: saline 113 % of control | dose: 6.0 mg/kg/injection, schedule: Q01DX001 (ip), vehicle: saline 97 % of control

Cc1ccc(-n2nnc3ccccc3c2=O)cc1C
inactive: [19] 101 % of control | [15] 92 % of control | [20] 98 % of control | [16] 108 % of control | dose: 400.0 mg/kg/injection, schedule: Q01DX009 (ip), vehicle: saline 104 % of control | [21] 93 % of control

Clc1ccc2c(NCCc3cnc[nH]3)ccnc2c1
inactive: [9] 94 % of control | [10] 94 % of control

COc1cc(C(=O)OC(C)CN2CCN(C(=O)c3cc(OC)c(OC)c(OC)c3)CC2)cc(OC)c1OC (stereo not given)
inactive: [17] 108 % of control | [13] 98 % of control | [18] 101 % of control | [14] 95 % of control | [19] 104 % of control | [15] 102 % of control | [20] 98 % of control | [16] 102 % of control | [21] 109 % of control

Cc1ccc(C)c([N+](=O)[O-])c1C(=O)O
inactive: [22] 104 % of control | [23] 96 % of control | [24] 109 % of control

O=C(CC(C(=O)Nc1ccccc1)C(O)(c1ccccc1)c1ccccc1)Nc1ccccc1 (stereo not given)
inactive: [22] 95 % of control | [23] 91 % of control | [24] 95 % of control

CC(=O)O[C@H]1C[C@@]2(C)[C@@H](C[C@@H](O)[C@H]3[C@@]4(C)CC[C@@H](O)[C@@H](C)[C@@H]4CC[C@@]32C)/C1=C(\CCC=C(C)C)C(=O)O
inactive: dose: 50.0 mg/kg/injection, schedule: Q01DX009 (sc), vehicle: steriod suspending solution 95 % of control | [22] 97 % of control | dose: 100.0 mg/kg/injection, schedule: Q01DX009 (sc), vehicle: steriod suspending solution 95 % of control | dose: 100.0 mg/kg/injection, schedule: Q04DX003 (ip), vehicle: steriod suspending solution 102 % of control | [23] 94 % of control | dose: 200.0 mg/kg/injection, schedule: Q01DX009 (sc), vehicle: steriod suspending solution 103 % of control | dose: 200.0 mg/kg/injection, schedule: Q04DX003 (ip), vehicle: steriod suspending solution 102 % of control | [24] 90 % of control | dose: 400.0 mg/kg/injection, schedule: Q04DX003 (ip), vehicle: steriod suspending solution 101 % of control

Cc1nc(CN(C)C)c2cnccn12
inactive: [17] 109 % of control | [18] 113 % of control | [15] 98 % of control

CCN(CC)CC(Cl)COc1ccccc1C (stereo not given)
inactive: [11] 91 % of control | [12] 94 % of control

CCOc1ccc2cc(Br)ccc2c1
inactive: dose: 50.0 mg/kg/injection, schedule: Q01DX001 (ip), vehicle: Klucel (hydroxypropylcellulose) (HPC) 101 % of control | [5] 106 % of control | [6] 97 % of control

CCC(Cl)COP(=O)(CC(Cl)CC)OC(C)P(=O)(OCC(Cl)CC)OCC(Cl)CC (stereo not given)
inactive: [5] 101 % of control | [6] 121 % of control | [7] 97 % of control

COc1ccccc1-n1c(O)c(N=Nc2ccccc2)c(=O)n(-c2ccc(Br)cc2)c1=S
inactive: [2] 106 % of control | [3] 100 % of control | [4] 94 % of control

CC(C)(C)NC(=O)Cc1ccccc1
inactive: dose: 50.0 mg/kg/injection, schedule: Q04DX003 (ip), vehicle: saline with Tween-80 97 % of control | [2] 98 % of control | [3] 103 % of control

COc1cc(N(CCCl)CCCl)ccc1C=Nc1ccccc1-n1ccnc1
inactive: dose: 68.8 mg/kg/injection, schedule: Q04DX002 (ip), vehicle: Klucel (hydroxypropylcellulose) (HPC) 102 % of control | dose: 137.5 mg/kg/injection, schedule: Q04DX002 (ip), vehicle: Klucel (hydroxypropylcellulose) (HPC) 91 % of control | dose: 275.0 mg/kg/injection, schedule: Q04DX002 (ip), vehicle: Klucel (hydroxypropylcellulose) (HPC) 102 % of control

CCCCCCCCCCCCOP(=O)(OCC)OCC
inactive: [25] 88 % of control | [26] 88 % of control | [27] 88 % of control

Cc1cc(C)nc(NCCCC(N)C(=O)O)n1 (stereo not given)
inactive: [25] 100 % of control | [26] 95 % of control | [27] 92 % of control

Cc1ccc(S(=O)(=O)N2CC(O)C(O)C2CO)cc1 (stereo not given)
inactive: dose: 50.0 mg/kg/injection, schedule: Q01DX005 (ip), vehicle: saline 96 % of control | dose: 100.0 mg/kg/injection, schedule: Q01DX005 (ip), vehicle: saline 104 % of control | dose: 200.0 mg/kg/injection, schedule: Q01DX005 (ip), vehicle: saline 102 % of control

COC(=O)C(CSCSC)NC(=O)Nc1ccc(F)cc1 (stereo not given)
inactive: [8] 98 % of control | [9] 93 % of control | [2] 95 % of control | [10] 94 % of control | [3] 93 % of control | [4] 95 % of control

O=C1c2cc(F)ccc2-c2cccc(F)c21
inactive: dose: 50.0 mg/kg/injection, schedule: Q01DX001 (ip), vehicle: carboxymethylcellulose (CMC) 102 % of control | [22] 108 % of control | [23] 104 % of control | [24] 98 % of control

— PubChem BioAssay AID248 (DTP/NCI, 2004)
